Common to all, as to format: cell-based
For test [1], the system named is Balamuthia mandrillaris trophozoites. The experiment in a line: CellTiter-Glo 2.0 trophocidal assay, B. mandrillaris. Conditions: for IC50: CTG method, 72 h, duplicate twofold serial dilutions from 10 µM, mean ± SD. The protocol:
Pathogenic Balamuthia mandrillaris (CDC:[…]; American Type Culture Collection (ATCC) 50209), a GAE isolate, isolated from a pregnant baboon at the San Diego Zoo in 1986 was donated by Luis Fernando […] University, Mexico [43]. Trophozoites were routinely grown axenically in Balamuthia mandrillaris Itson (BMI) media at 37 °C, 5% CO2 in vented 75 cm^2 tissue culture flasks (Olympus, El Cajon, CA, USA), until the cells were 80-90% confluent. For sub-culturing, 0.25% Trypsin-EDTA (Gibco, Gaithersburg, MD, USA) cell detachment reagent was used to detach the cells from the culture flasks. The cells were collected by centrifugation at 4000 rpm at 4 °C. Complete BMI media is produced by the addition of 10% fetal bovine serum (FBS) and 125 μg of penicillin/streptomycin antibiotics. The trophocidal activity of compounds was assessed using the CellTiter-Glo 2.0 luminescent viability assay (Promega, Madison, WI, USA), as previously described. Trophozoites were routinely cultured as described above and only logarithmic trophozoites were used. […] Inhibitors were assessed for percent inhibition using the criteria of ≤33% growth inhibition (no inhibition), 33-67% growth inhibition (moderate inhibition), and ≥67% growth inhibition (strong inhibition). […] We used this process to reduce the number of potential false positives. […] All assays were incubated at each of the parasites' representative growth temperatures, described above, for 72 h. At the 72 h time point, 25 μL of CellTiter-Glo 2.0 reagent was added to all wells of the 96-well plates using the Biomek NX^P automated workstation. The plates were protected from light and contents were mixed using an orbital shaker at 300 rpm at room temperature for 2 min to induce cell lysis. After shaking, the plates were equilibrated at room temperature for 10 min to stabilize the luminescent signal. The adenosine triphosphate (ATP) luminescent signal (relative light units; RLUs) was measured at 490 nm with a SpectraMax I3X plate reader (Molecular Devices, Sunnyvale, CA, USA). Drug inhibitory concentration (IC50) curves were generated using total ATP RLUs, where controls were calculated as the average of replicates using the Levenberg-Marquardt algorithm, using DMSO as the normalization control, as defined in Collaborative Drug Discovery Inc. (CDD) Vault (Burlingame, CA, USA). Values reported are from a minimum of two biological replicates with standard deviations.
(In general: Cellular ATP, detected with luciferase, serves as a proxy for viable cell number.)

Test [2] concerns Naegleria fowleri trophozoites. In words: CellTiter-Glo 2.0 trophocidal assay, N. fowleri. Conditions: CTG method, 72 h, duplicate twofold serial dilutions from 10 µM, mean ± SD; read-out: N. fowleri Mean IC50 (µM) ± SD. Here is the method: Pathogenic Naegleria fowleri (ATCC 30215), a clinical isolate obtained from a child in Adelaide, Australia, that died of PAM in 1969 was previously purchased from the American Type Culture Collection (ATCC). Trophozoites were routinely grown axenically at 34 °C in Nelson’s complete medium (NCM) in non-vented 75 cm^2 tissue culture flasks (Olympus, El Cajon, CA, USA), until the cells were 80–90% confluent. For sub-culturing, cells were placed on ice to detach the cells from the culture flasks. The cells were collected by centrifugation at 4000 rpm at 4 °C. Complete NCM media is produced by the addition of 10% FBS and 125 μg of penicillin/streptomycin antibiotics.
The trophocidal activity of compounds was assessed using the CellTiter-Glo 2.0 luminescent viability assay (Promega, Madison, WI, USA), as previously described. Trophozoites were routinely cultured as described above and only logarithmic trophozoites were used. In brief, B. mandrillaris, N. fowleri, or A. castellanii trophozoites cultured in their corresponding media were seeded at 16,000, 3000, or 1440 cells/well into white 96-well plates (Costar 3370), respectively. Initially all compounds were assessed in a single-point drug screen at 10 and 1 μM, as previously described. […] Control wells were supplemented with 0.1% (10 μM screening plate) or 0.01% (1 μM screening plate) DMSO, as the negative controls, or 12.5 μM of chlorhexidine, as the positive control. Following the single-point assays at 10 and 1 µM, we prioritized compounds for progression to IC50 determinations. […] We used this process to reduce the number of potential false positives. Drugs were cherry-picked, dissolved in the media specific to each parasite, and assessed in twofold serial dilutions from the highest concentration of 10 μM. All assays were incubated at each of the parasites’ representative growth temperatures, described above, for 72 h. At the 72 h time point, 25 μL of CellTiter-Glo 2.0 reagent was added to all wells of the 96-well plates using the Biomek NX^P automated workstation. The plates were protected from light and contents were mixed using an orbital shaker at 300 rpm at room temperature for 2 min to induce cell lysis. After shaking, the plates were equilibrated at room temperature for 10 min to stabilize the luminescent signal. The adenosine triphosphate (ATP) luminescent signal (relative light units; RLUs) was measured at 490 nm with a SpectraMax I3X plate reader (Molecular Devices, Sunnyvale, CA, USA). Drug inhibitory concentration (IC50) curves were generated using total ATP RLUs, where controls were calculated as the average of replicates using the Levenberg–Marquardt algorithm, using DMSO as the normalization control, as defined in Collaborative Drug Discovery Inc. (CDD) Vault (Burlingame, CA, USA). Values reported are from a minimum of two biological replicates with standard deviations.

The subject of test [3] is Acanthamoeba castellanii trophozoites. In words: CellTiter-Glo 2.0 trophocidal assay, A. castellanii. The settings on record: for IC50: CTG method, 72 h, duplicate twofold serial dilutions from 10 µM, mean ± SD. Here is the method:
This isolate was also purchased from ATCC. Trophozoites were routinely grown axenically at 27 °C in Protease Peptone-Glucose Media (PG) in non-vented 75 cm^2 tissue culture flasks (Olympus, El Cajon, CA, USA), until the cells were 80–90% confluent. For sub-culturing, cells were mechanically harvested to detach the cells from the culture flasks. The cells were collected by centrifugation at 4000 rpm at 4 °C.
The trophocidal activity of compounds was assessed using the CellTiter-Glo 2.0 luminescent viability assay (Promega, Madison, WI, USA), as previously described. Trophozoites were routinely cultured as described above and only logarithmic trophozoites were used. […] Initially all compounds were assessed in a single-point drug screen at 10 and 1 μM, as previously described. […] We used this process to reduce the number of potential false positives. Drugs were cherry-picked, dissolved in the media specific to each parasite, and assessed in twofold serial dilutions from the highest concentration of 10 μM. All assays were incubated at each of the parasites’ representative growth temperatures, described above, for 72 h. At the 72 h time point, 25 μL of CellTiter-Glo 2.0 reagent was added to all wells of the 96-well plates using the Biomek NX^P automated workstation. The plates were protected from light and contents were mixed using an orbital shaker at 300 rpm at room temperature for 2 min to induce cell lysis. After shaking, the plates were equilibrated at room temperature for 10 min to stabilize the luminescent signal. The adenosine triphosphate (ATP) luminescent signal (relative light units; RLUs) was measured at 490 nm with a SpectraMax I3X plate reader (Molecular Devices, Sunnyvale, CA, USA). Drug inhibitory concentration (IC50) curves were generated using total ATP RLUs, where controls were calculated as the average of replicates using the Levenberg–Marquardt algorithm, using DMSO as the normalization control, as defined in Collaborative Drug Discovery Inc. (CDD) Vault (Burlingame, CA, USA). Values reported are from a minimum of two biological replicates with standard deviations.

Test [4] deals with A549 human lung carcinoma cells. The experiment in a line: MTS cytotoxicity counter-screen of reconfirmed hits. The settings on record: MTS assay, 72 h, doubling dilutions from 10 µM; read-out: A549 Mean IC50. Here is the method: Cytotoxicity of the reconfirmed hits was determined by using the CellTiter 96® AQueous One Solution Cell Proliferation Assay (Promega, Madison, WI) on A549 human lung carcinoma cells. A549 cells were seeded at a concentration of 1.6 × 10^4 cells/mL in 96-well tissue culture plates (Corning, NY, USA), in the presence of serially diluted active hits against B. mandrillaris, N. fowleri, or A. castellanii. Positive control wells contained cells and media; negative control wells contained 0.1% DMSO. Cells were grown in F12K medium supplemented with 10% FBS and 1% gentamycin (all supplied from Fisher Scientific, Atlanta, GA, USA). The inhibitor concentration started at 10 µM and was diluted in doubling dilutions to assess cytotoxicity in comparison to the respective free-living amoeba. Total volume of each well was 100 µL and plates were incubated at 37 °C, 5% CO2 for 72 h. Next, 4 h before the time-point, 20 µL of MTS (Promega, Madison, WI, USA) was added to each well. Inhibition of A549 growth was assessed at the 72 h time-point measuring the optical density (OD) values at 490 nm using a SpectraMax I3X plate reader (Molecular Devices, Sunnyvale, CA, USA). Curve fitting using non-linear regression was carried out using the average of replicates and the Levenberg–Marquardt algorithm, using DMSO as the normalization control, as defined in CDD Vault (Burlingame, CA, USA).

Here are results for four compounds from publication PMC7344389, “Discovery of Anti-Amoebic Inhibitors from Screening the MMV Pandemic Response Box on Balamuthia mandrillaris, Naegleria fowleri, and Acanthamoeba castellanii” (Pathogens, 2020).

The term IC50 denotes the concentration that gives 50% inhibition.

For the compound `O=C1C=C(c2ccccc2)S(=O)(=O)c2ccccc21` [1,1-dioxide 1-thioflavone], the IC50 in test [1] was 0.37 ± 0.01 µM; in test [2], 5 µM; in test [3] it was over 10 µM; in test [4], over 10 µM. The “potency against B. mandrillaris, in words” value in test [1] (dose-response, CTG) was “nanomolar potency”.

In the case of `Clc1cc(Cl)c2c(c1)CCc1ccccc1C2n1ccnc1` (stereo not drawn) [Eberconazole], the IC50 was over 10 µM in test [1]; 1.22 ± 0.66 µM in test [2]; 3.7 ± 1.13 µM in test [3]; at most 10 µM in test [3] (listed as eberconazole); over 10 µM in test [4].

Regarding `O[C@@](Cn1cnnn1)(c1ccc(F)cc1F)C(F)(F)c1ccc(-c2ccc(OCC(F)(F)F)cc2)cn1` [MMV1634386], the IC50 in test [1] is over 10 µM; in test [2], 2.4 ± 1.7 µM; in test [3], 0.16 ± 0.09 µM; in test [4], over 10 µM. Besides, the “potency against A. castellanii, in words” value in test [3] (dose-response, CTG) is given as “nanomolar potency”.

`O=C(/C(=C/c1ccc(Cl)cc1Cl)n1ccnc1)c1ccc(Cl)cc1` [MMV1634491]: the results for the IC50 in test [1], in test [2] and in test [4] were over 10 µM, 5.15 ± 1.35 µM and over 10 µM, respectively.
